Measured values as given in ChEMBL document CHEMBL3112450, “Synthesis and in vitro antitumor evaluation of primary amine substituted quinazoline linked benzimidazole” (Bioorg Med Chem Lett, 2014).

Assays:
Type in all cases: functional
CCRF-CEM = experiment: Cytotoxicity against human CCRF-CEM cells after 48 hrs by SRB assay
T47D [1] = experiment: Cytotoxicity against human T47D cells assessed as cell growth at 10^-7 M after 48 hrs by SRB assay; settings: read-out: Activity
SK-MEL-2 [2] = experiment: Cytotoxicity against human SK-MEL-2 cells assessed as cell growth at 10^-6 M after 48 hrs by SRB assay; settings: SK-MEL-2, 48 h, read-out: Activity
SK-OV-3 = experiment: Cytotoxicity against human SKOV3 cells after 48 hrs by SRB assay; settings: SK-OV-3, 48 h
MDA-MB-435 = experiment: Cytotoxicity against human MDA-MB-435 cells assessed as cell growth at 10^-8 M after 48 hrs by SRB assay; settings: MDA-MB-435, 48 h, read-out: Activity
786-0 [3] = experiment: Cytotoxicity against human 786-0 cells assessed as cell growth at 10^-8 M after 48 hrs by SRB assay; settings: 786-0, 48 h, read-out: Activity
DU-145 = experiment: Cytotoxicity against human DU145 cells assessed as cell growth at 10^-4 M after 48 hrs by SRB assay; settings: DU-145, 48 h, read-out: Activity
MDA-MB-231 = experiment: Cytotoxicity against human MDA-MB-231 cells assessed as cell growth at 10^-4 M after 48 hrs by SRB assay; settings: MDA-MB-231, 48 h, read-out: Activity
SK-MEL-2 [4] = experiment: Cytotoxicity against human SK-MEL-2 cells assessed as cell growth at 10^-8 M after 48 hrs by SRB assay; settings: SK-MEL-2, 48 h, read-out: Activity
RPMI-8226 [5] = experiment: Cytotoxicity against human RPMI8226 cells assessed as cell growth at 10^-7 M after 48 hrs by SRB assay; settings: RPMI-8226, 48 h, read-out: Activity
HL-60(TB) = experiment: Cytotoxicity against human HL-60(TB) cells after 48 hrs by SRB assay; settings: HL-60, 48 h
SF-295 = experiment: Cytotoxicity against human SF295 cells assessed as cell growth at 10^-8 M after 48 hrs by SRB assay; settings: SF-295, 48 h, read-out: Activity
HCT-15 = experiment: Cytotoxicity against human HCT15 cells assessed as cell growth at 10^-4 M after 48 hrs by SRB assay; settings: HCT-15, 48 h, read-out: Activity
T47D [6] = experiment: Cytotoxicity against human T47D cells after 48 hrs by SRB assay
SN12C [7] = experiment: Cytotoxicity against human SN12C cells assessed as cell growth at 10^-7 M after 48 hrs by SRB assay; settings: read-out: Activity
NCI-H460 = experiment: Cytotoxicity against human NCI-H460 cells assessed as cell growth at 10^-7 M after 48 hrs by SRB assay; settings: NCI-H460, 48 h, read-out: Activity
RPMI-8226 [8] = experiment: Cytotoxicity against human RPMI8226 cells after 48 hrs by SRB assay; settings: RPMI-8226, 48 h
MDA-MB-468 [9] = experiment: Cytotoxicity against human MDA-MB-468 cells assessed as cell growth at 10^-4 M after 48 hrs by SRB assay; settings: MDA-MB-468, 48 h, read-out: Activity
SK-MEL-2 [10] = experiment: Cytotoxicity against human SK-MEL-2 cells assessed as cell growth at 10^-7 M after 48 hrs by SRB assay; settings: SK-MEL-2, 48 h, read-out: Activity
BT-549 [11] = experiment: Cytotoxicity against human BT549 cells assessed as cell growth at 10^-6 M after 48 hrs by SRB assay; settings: BT-549, 48 h, read-out: Activity
BT-549 [12] = experiment: Cytotoxicity against human BT549 cells after 48 hrs by SRB assay; settings: BT-549, 48 h
[13] = Cytotoxicity against human NCI-ADR-RES cells assessed as cell growth at 10^-4 M after 48 hrs by SRB assay; settings: read-out: Activity
[14] = Cytotoxicity against human Hs578T cells assessed as cell growth at 10^-8 M after 48 hrs by SRB assay; settings: Hs-578T, read-out: Activity
MOLT-4 [15] = experiment: Cytotoxicity against human MOLT4 cells assessed as cell growth at 10^-4 M after 48 hrs by SRB assay; settings: MOLT-4, 48 h, read-out: Activity
NCI-H322M = experiment: Cytotoxicity against human NCI-H322M cells assessed as cell growth at 10^-8 M after 48 hrs by SRB assay; settings: read-out: Activity
SN12C [16] = experiment: Cytotoxicity against human SN12C cells assessed as cell growth at 10^-6 M after 48 hrs by SRB assay; settings: read-out: Activity
[17] = Cytotoxicity against human OVCAR4 cells assessed as cell growth at 10^-6 M after 48 hrs by SRB assay; settings: OVCAR-4, 48 h, read-out: Activity
NCI-H23 [18] = experiment: Cytotoxicity against human NCI-H23 cells assessed as cell growth at 10^-6 M after 48 hrs by SRB assay; settings: NCI-H23, 48 h, read-out: Activity
MCF7 = experiment: Cytotoxicity against human MCF7 cells after 48 hrs by SRB assay; settings: MCF7, 48 h
[19] = Cytotoxicity against human NCI-ADR-RES cells after 48 hrs by SRB assay
MDA-MB-468 [20] = experiment: Cytotoxicity against human MDA-MB-468 cells assessed as cell growth at 10^-8 M after 48 hrs by SRB assay; settings: MDA-MB-468, 48 h, read-out: Activity
NCI-H23 [21] = experiment: Cytotoxicity against human NCI-H23 cells assessed as cell growth at 10^-4 M after 48 hrs by SRB assay; settings: NCI-H23, 48 h, read-out: Activity
TK-10 = experiment: Cytotoxicity against human TK10 cells assessed as cell growth at 10^-7 M after 48 hrs by SRB assay; settings: TK-10, 48 h, read-out: Activity
786-0 [22] = experiment: Cytotoxicity against human 786-0 cells assessed as cell growth at 10^-6 M after 48 hrs by SRB assay; settings: 786-0, 48 h, read-out: Activity
MOLT-4 [23] = experiment: Cytotoxicity against human MOLT4 cells assessed as cell growth at 10^-6 M after 48 hrs by SRB assay; settings: MOLT-4, 48 h, read-out: Activity
[24] = Cytotoxicity against human Hs578T cells after 48 hrs by SRB assay; settings: Hs-578T
SF-539 = experiment: Cytotoxicity against human SF539 cells after 48 hrs by SRB assay; settings: SF-539, 48 h
K562 = experiment: Cytotoxicity against human K562 cells assessed as cell growth at 10^-6 M after 48 hrs by SRB assay; settings: K562, 48 h, read-out: Activity
SNB-19 = experiment: Cytotoxicity against human SNB19 cells after 48 hrs by SRB assay; settings: SNB-19, 48 h
Malme-3M = experiment: Cytotoxicity against human MALME-3M cells assessed as cell growth at 10^-4 M after 48 hrs by SRB assay; settings: read-out: Activity

Q: Which GI50 (CCRF-CEM) does the source give for `C=CCn1c(C)nc2ccc(Nc3nc(Nc4ccc5nc(C)n(CC=C)c5c4)c4ccccc4n3)cc21` here?
A: Its GI50 is 2090 nM.

Q: What about the LC50 (CCRF-CEM) of the same molecule?
A: The LC50 was over 100000 nM.

Q: And the growth at 0.1 µM (T47D [1])?
A: The growth at 0.1 µM was 92%.

Q: And the growth at 1 µM (SK-MEL-2 [2])?
A: Its growth at 1 µM is 107%.

Q: What about the GI50 (SK-OV-3) of the same molecule?
A: The GI50 was 1720 nM.

Q: And the LC50 (concentration killing 50% of cells) (SK-OV-3)?
A: The LC50 (concentration killing 50% of cells) was 5560 nM.

Q: What about the TGI (SK-OV-3) of the same molecule?
A: The TGI was 3090 nM.

Q: And the growth at 0.01 µM (MDA-MB-435)?
A: Its growth at 0.01 µM is 100%.

Q: What about the growth at 0.01 µM (786-0 [3]) of the same molecule?
A: The growth at 0.01 µM was 98%.

Q: What about the growth at 100 µM (DU-145) of the same molecule?
A: Its growth at 100 µM is -75%.

Q: What about the growth at 100 µM (MDA-MB-231) of the same molecule?
A: Its growth at 100 µM is -63%.

Q: What about the growth at 0.01 µM (SK-MEL-2 [4]) of the same molecule?
A: Its growth at 0.01 µM is 96%.

Q: What about the growth at 0.1 µM (RPMI-8226 [5]) of the same molecule?
A: Its growth at 0.1 µM is 99%.

Q: And the GI50 (HL-60(TB))?
A: The GI50 was 1860 nM.

Q: And the TGI (HL-60(TB))?
A: The TGI was 3720 nM.

Q: And the growth at 0.01 µM (SF-295)?
A: Its growth at 0.01 µM is 94%.

Q: And the growth at 100 µM (HCT-15)?
A: Its growth at 100 µM is -15%.

Q: And the GI50 (T47D [6])?
A: Its GI50 is 1540 nM.

Q: And the TGI (T47D [6])?
A: Its TGI is 3180 nM.

Q: And the growth at 0.1 µM (SN12C [7])?
A: The growth at 0.1 µM was 94%.

Q: And the growth at 0.1 µM (NCI-H460)?
A: Its growth at 0.1 µM is 101%.

Q: And the GI50 (RPMI-8226 [8])?
A: The GI50 was 1870 nM.

Q: What about the LC50 (RPMI-8226 [8]) of the same molecule?
A: The LC50 was over 100000 nM.

Q: What about the growth at 100 µM (MDA-MB-468 [9]) of the same molecule?
A: Its growth at 100 µM is -33%.

Q: What about the growth at 0.1 µM (SK-MEL-2 [10]) of the same molecule?
A: Its growth at 0.1 µM is 99%.

Q: And the growth at 1 µM (BT-549 [11])?
A: The growth at 1 µM was 86%.

Q: And the GI50 (BT-549 [12])?
A: Its GI50 is 1620 nM.

Q: What about the TGI (BT-549 [12]) of the same molecule?
A: The TGI was 3160 nM.

Q: And the growth at 100 µM [13]?
A: Its growth at 100 µM is -18%.

Q: And the growth at 0.01 µM [14]?
A: Its growth at 0.01 µM is 95%.

Q: What about the growth at 100 µM (MOLT-4 [15]) of the same molecule?
A: Its growth at 100 µM is 2%.

Q: What about the growth at 0.01 µM (NCI-H322M) of the same molecule?
A: The growth at 0.01 µM was 89%.

Q: What about the growth at 1 µM (SN12C [16]) of the same molecule?
A: Its growth at 1 µM is 90%.

Q: And the growth at 1 µM [17]?
A: The growth at 1 µM was 84%.

Q: What about the growth at 1 µM (NCI-H23 [18]) of the same molecule?
A: Its growth at 1 µM is 93%.

Q: What about the GI50 (MCF7) of the same molecule?
A: Its GI50 is 1540 nM.

Q: And the TGI (MCF7)?
A: Its TGI is 2880 nM.

Q: And the GI50 [19]?
A: The GI50 was 2220 nM.

Q: And the LC50 [19]?
A: The LC50 was over 100000 nM.

Q: And the TGI [19]?
A: Its TGI is 6070 nM.

Q: What about the growth at 0.01 µM (MDA-MB-468 [20]) of the same molecule?
A: Its growth at 0.01 µM is 93%.

Q: What about the growth at 100 µM (NCI-H23 [21]) of the same molecule?
A: Its growth at 100 µM is -42%.

Q: What about the growth at 0.1 µM (TK-10) of the same molecule?
A: Its growth at 0.1 µM is 99%.

Q: And the growth at 1 µM (786-0 [22])?
A: Its growth at 1 µM is 92%.

Q: What about the growth at 1 µM (MOLT-4 [23]) of the same molecule?
A: The growth at 1 µM was 73%.

Q: What about the GI50 [24] of the same molecule?
A: Its GI50 is 1710 nM.

Q: And the TGI [24]?
A: The TGI was 4080 nM.

Q: What about the GI50 (SF-539) of the same molecule?
A: The GI50 was 1710 nM.

Q: And the LC50 (concentration giving 50% net cell kill) (SF-539)?
A: The LC50 (concentration giving 50% net cell kill) was 5710 nM.

Q: And the TGI (SF-539)?
A: Its TGI is 3120 nM.

Q: What about the growth at 1 µM (K562) of the same molecule?
A: Its growth at 1 µM is 68%.

Q: And the GI50 (SNB-19)?
A: The GI50 was 1690 nM.

Q: And the TGI (SNB-19)?
A: Its TGI is 3560 nM.

Q: And the growth at 100 µM (Malme-3M)?
A: Its growth at 100 µM is -5%.
